Literature values as cited in US20170128482A1, “MODIFIED RELEASE PHARMACEUTICAL COMPOSITIONS OF […] RIBAVIRIN” (SANOVEL ILAC SANAYI VE TICARET A.S., priority 2014, published 2017).

Tests used:
[1] = tested on: chronic hepatitis C (CHC) infections / HCV; conditions: ribavirin alone

1-β-Dribofuranosyl-1H-1,2,4-triazole-3-carboxamide [Ribavirin]
sustained virologic response [1]: did not produce any sustained virologic response | HCV RNA levels ([1]; during or after therapy): did not reduce | alanine aminotransferase (ALT) levels ([1]; during the course of treatment, some patients with CHC): transiently

CC(C)OC(=O)[C@H](C)N[P@](=O)(OC[C@H]1O[C@@H](n2ccc(=O)[nH]c2=O)[C@](C)(F)[C@@H]1O)Oc1ccccc1 [Sofosbuvir, (S)-Isopropyl 2-((S)-(((2R,3R,4R,5R)-5-(2,4-dioxo3,4-dihydropyrimidin-1(2H)-yl)-4-fluoro-3-hydroxy-4-methyltetrahydrofuran-2yl)methoxy)-(phenoxy)phosphorylamino)propanoate]
metabolism by Cytochrome P450 (CYP450) (Cytochrome P450 (CYP450)): not metabolized
